Test results taken from US9090631B2, “Process for purifying cefotiam hydrochloride” (HAINAN LINGKANG PHARMACEUTICAL CO., LTD., priority 2011, dated 2015).
Structures can show the parent of a compound that is named as a salt.

Experiment: Solubility of cefotiam hydrochloride in recrystallization solvents
Assay type: physicochemical
Source text: The solubility of cefotiam hydrochloride is great in water but very small in ethanol, and even smaller in acetone. A mixture of water and ethanol or a mixture of water and acetone is used as the solvent to recrystallize cefotiam hydrochloride.

solubility (in ethanol): very small
solubility (in water): great
Structure (SMILES): CN(C)CCn1nnnc1SCC1=C(C(=O)O)N2C(=O)[C@@H](NC(=O)Cc3csc(N)n3)[C@H]2SC1 [cefotiam hydrochloride, (6R,7R)-7-[[(2-amino-4-thiazolyl)acetyl]amino]-3-[[1-[2-(dimethylamino)ethyl]-1H-tetrazol-5-yl]thiomethyl]-8-oxo-5-thia-1-azabicyclo[4,2,0]oct-2-ene-2-carboxylic acid dihydrochloride]
